Literature values in US20170335399A1, “DETECTION OF MINERALOCORTICOID RECEPTOR ACTIVATION AND PERSONALIZED ANTIHYPERTENSIVE THERAPY BASED THEREON” (The Regents of University of Michigan, priority 2014, published 2017).

What was measured:
[1] = test system: ENaC; conditions: patients treated with spironolactone
[2] = biological target: T1, mineralocorticoid receptor (MR) (Homo sapiens, UniProt P08235); conditions: resistant hypertension; after addition of spironolactone; other studies
T1 construct: host or cells: patients with resistant hypertension (in vivo)
T1 sequence (P08235 1-984): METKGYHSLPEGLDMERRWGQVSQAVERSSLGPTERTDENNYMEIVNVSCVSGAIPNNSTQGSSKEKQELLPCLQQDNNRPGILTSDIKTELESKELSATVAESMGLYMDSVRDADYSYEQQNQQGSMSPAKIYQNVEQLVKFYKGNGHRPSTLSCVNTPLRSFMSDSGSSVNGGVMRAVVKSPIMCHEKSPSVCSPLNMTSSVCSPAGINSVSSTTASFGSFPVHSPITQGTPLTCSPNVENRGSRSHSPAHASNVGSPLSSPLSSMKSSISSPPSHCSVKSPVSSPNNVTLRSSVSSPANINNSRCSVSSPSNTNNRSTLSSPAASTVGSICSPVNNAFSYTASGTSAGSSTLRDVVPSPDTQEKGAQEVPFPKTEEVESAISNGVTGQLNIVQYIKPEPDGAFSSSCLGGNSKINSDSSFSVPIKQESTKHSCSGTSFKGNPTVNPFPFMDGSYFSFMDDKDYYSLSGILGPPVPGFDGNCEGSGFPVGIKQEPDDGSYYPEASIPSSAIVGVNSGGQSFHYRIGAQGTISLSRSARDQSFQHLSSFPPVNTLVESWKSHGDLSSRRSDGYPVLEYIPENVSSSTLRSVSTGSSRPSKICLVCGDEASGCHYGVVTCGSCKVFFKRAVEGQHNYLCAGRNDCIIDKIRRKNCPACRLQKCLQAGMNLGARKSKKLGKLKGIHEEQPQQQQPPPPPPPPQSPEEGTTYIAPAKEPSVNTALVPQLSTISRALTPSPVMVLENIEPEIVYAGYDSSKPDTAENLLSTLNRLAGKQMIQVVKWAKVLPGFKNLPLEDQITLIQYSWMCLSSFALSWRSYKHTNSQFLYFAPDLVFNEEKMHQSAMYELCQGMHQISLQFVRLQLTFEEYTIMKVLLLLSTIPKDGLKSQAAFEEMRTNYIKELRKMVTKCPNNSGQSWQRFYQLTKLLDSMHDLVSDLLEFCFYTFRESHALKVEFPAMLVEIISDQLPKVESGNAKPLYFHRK

[3] = biological target: T1, mineralocorticoid receptor (MR); conditions: resistant hypertension patients; ASPIRANT trial; placebo-corrected mean

SMILES: CC(=O)S[C@@H]1CC2=CC(=O)CC[C@]2(C)[C@H]2CC[C@@]3(C)[C@@H](CC[C@@]34CCC(=O)O4)[C@H]12 [spironolactone]
- ENaC expression on peripheral blood mononuclear cells [1]: decreased
- mean reductions in systolic blood pressure [2]: 16-26 mm Hg
- mean reduction of 24-hour systolic blood pressure more than placebo [3]: 9.8 mm Hg
